Source: ChEMBL document CHEMBL1157821, “In vitro photodynamic therapy and quantitative structure-activity relationship studies with stable synthetic near-infrared-absorbing bacteriochlorin photosensitizers” (J Med Chem, 2010)

Tested on: HeLa
Test: Photocytotoxicity against human HeLa cells assessed as survival-fraction per unit uptake measured as concentration in incubation medium necessary to produce cell uptake of 0.3 nmol per mg of protein at which survival fraction was determined after 24 hrs in presence of 10 J/cm2 light
Type: functional

| SMILES | survival fraction |
| --- | --- |
| CC1(C)Cc2cc3[nH]c(cc4nc(cc5[nH]c(cc1n2)cc5C(=O)/C=C/c1cc(O)cc(O)c1)CC4(C)C)cc3C(=O)/C=C/c1cc(O)cc(O)c1 | 0.23 |
| CC1(C)Cc2cc3[nH]c(cc4nc(cc5[nH]c(cc1n2)cc5C#CC[N+](C)(C)C)CC4(C)C)cc3C#CC[N+](C)(C)C.[Cl-].[Cl-] | 0.6 |
| COCCN(CCOC)C(=O)c1cc2cc3nc(cc4[nH]c(cc5nc(cc1[nH]2)CC5(C)C)cc4C(=O)N(CCOC)CCOC)CC3(C)C | 0.02 |
| CC1(C)Cc2cc3[nH]c(cc4nc(cc5[nH]c(cc1n2)cc5-c1cc(O)cc(O)c1)CC4(C)C)cc3-c1cc(O)cc(O)c1 | 0.01 |
| CC1(C)Cc2cc3[nH]c(cc4nc(cc5[nH]c(cc1n2)cc5C(=O)NCCN)CC4(C)C)cc3C(=O)NCCN | 0.88 |
| CC1(C)Cc2cc3[nH]c(cc4nc(cc5[nH]c(cc1n2)cc5-c1cc(OCCO)cc(OCCO)c1)CC4(C)C)cc3-c1cc(OCCO)cc(OCCO)c1 | 0.001 |
| CC1(C)Cc2cc3[nH]c(cc4nc(cc5[nH]c(cc1n2)cc5C(=O)N(CCN)CCN)CC4(C)C)cc3C(=O)N(CCN)CCN | 0.9 |
| COCCOCCOCCOCCNCc1cc(CNCCOCCOCCOCCOC)cc(-c2c3nc(cc4[nH]c(cc4-c4ccc(C)cc4)c(OC)c4nc(cc5[nH]c2cc5-c2ccc(C)cc2)C(C)(C)C4)C(C)(C)C3)c1 | 0.1 |
| CC1(C)Cc2cc3[nH]c(cc4nc(cc5[nH]c(cc1n2)cc5C(=O)N1CC[N+](C)(C)CC1)CC4(C)C)cc3C(=O)N1CC[N+](C)(C)CC1.[Cl-].[Cl-] | 1 |
| CC1(C)Cc2cc3[nH]c(cc4nc(cc5[nH]c(cc1n2)cc5CN(CCO)CCO)CC4(C)C)cc3CN(CCO)CCO | 0.04 |
| CC1(C)Cc2cc3[nH]c(cc4nc(cc5[nH]c(cc1n2)cc5C(=O)O)CC4(C)C)cc3C(=O)O | 0.35 |
